Source: patent US6130250A, “Veterinary use of a pleuromutilin derivative” (priority 1996, dated 2000)
Counter-ions that a name gives are not always drawn.

Experiments:
Mycoplasma gallisepticum = assay: Challenge study, prevention of Mycoplasma gallisepticum infection; type: in vivo, male broiler chickens; conditions: for prevention of clinical signs and mortality: tiamulin three doses
Description: Groups of male broiler chickens are infected with a virulent strain of Mycoplasma gallisepticum (MG) and each group medicated respectively with one of the following: valnemulin (concentrations of 0.00312, 0.00625, 0.0125 and 0.025%), tiamulin (0.00625, 0.0125 and 0.025%), and tylosin (0.05%). Infection is effected on day 2 by injection of 0.1 ml of Mycoplasma gallisepticum culture containing approximately 10^6 cfu of viable organisms into each lung (Jordan, F. T. W., The Veterinary Record 127 [1990] 502) and medication is commenced within an hour of infection and continued for three consecutive days. There is also an infected untreated group and an uninfected group.

S. hyodysenteriae [1] = assay: Further challenge trial: treatment of swine dysentery; type: in vivo, pigs
Source text: A group of 60 (3.5 to 4 weeks old) conventionally reared pigs are fed unmedicated food for 14 days then challenged by the oral route with the standard strain of S. hyodysenteriae (P18A). When clinical signs of disease are evident, pigs are allocated to six treatment groups of 8 pigs per group and fed antibiotic containing feed for 10 days, then unmedicated food for a further 14 days. Valnemulin hydrochloride is fed at 50, 75, 100 and 150 ppm and compared with tiamulin hydrogen fumarate fed at 100 ppm and with unmedicated controls. Pigs with a range of clinical signs of disease are included in each treatment group. After allocation to the treatment groups the evidence of clinical disease is assessed daily and a clinical score assigned, rectal swabs are taken twice weekly for isolation of S. hyodysenteriae and all pigs are weighed at regular intervals. Food intake is also recorded. A post-mortem examination is carried out 24 days after challenge and the large intestine of each pig examined for the presence of lesions. Mucosal scrapings are also taken from 4 areas in the large intestine and cultured for S. hyodysenteriae.

S. hyodysenteriae [2] = assay: MIC determination by agar dilution, 10 strains from porcine faeces; type: cell-based, Serpulina hyodysenteriae; conditions: for MIC: Brachyspira hyodysenteriae
Description: Minimum inhibitory concentrations (MICs) are determined against 10 strains of S. hyodysenteriae isolated from porcine faeces, by the agar dilution method. NCTC (National Collection of Type Cultures) strains or reference strains are used as controls in all MIC tests. The agar medium for S. hyodysenteriae consists of BAB2 (Unipath CM271) containing 7% whole defibrinated sterile sheep blood. All antimicrobial agents are tested in doubling dilutions. Prepared antibiotic dilutions are added to an appropriate volume of MH agar, previously cooled to 50° C., mixed and 20 ml volumes poured. All S. hyodysenteriae incubations are performed in an anaerobic work station at 37° C. (+/-0.5° C.) (Don Whitley Scientific) which provides a strict anaerobic atmosphere comprising 80% nitrogen, 10% hydrogen and 10% carbon dioxide. All other incubations are performed at 37° C. All strains are incubated in an […] atmosphere at 37° C. for 24 hours. The numbers of the organisms are adjusted to an optical density (OD) equivalent to 1×10^8 colony forming units (cfu) per ml, using MH broth as a blank. The antibiotic containing plates are inoculated in duplicate using a multipoint inoculator (Denley Instruments) which delivers a plate inoculum of approximately 1 μl giving an inoculum of 10^4 -10^5 cfu per spot for all strains (Amon, J. Antimicrob. Chemother. 21 [1988] 701-710; Ericsson et al., Acta Pathol. Microbiol. et Immunol. Scand. 217 [1971] (B) Suppl., 1-90). Control plates are incubated under the same conditions as the test plates. The MICs are read after 24 and 48 hours, the latter being the definitive reading. The MIC is defined as the lowest concentration of antibiotic on which there is no growth, disregarding a single colony or a faint haze caused by the inoculum (National Committee for Clinical Laboratory Standards [1989], Antimicrobial Susceptibility Testing, NCCLC Publications SC3, Villanova, Pa., USA).

S. hyodysenteriae [3] = assay: Challenge trial: prevention of swine dysentery; type: in vivo, pigs; conditions: for pigs with S. hyodysenteriae isolated: rectal swabs
Description: Two trials were effected where valnemulin fed at various inclusion levels is compared to tiamulin for the prevention of swine dysentery. The severity of disease is assessed by the evidence of clinical disease as determined by clinical scores for body condition, faeces consistency and composition. The excretion of Serpulina hyodysenteriae in faeces, lesions at post-mortem examination, growth rate and feed conversion ratio are also determined.
In the first trial valnemulin hydrochloride fed at 20, 30 and 40 ppm is compared with tiamulin hydrogen fumarate fed at 30 ppm and with unmedicated controls. Five groups of 9 (5 to 6 week old) conventionally reared pigs are used for each treatment group. The pigs are fed unmedicated food for 14 days, then challenged with the standard strain of S. hyodysenteriae (P18A). Challenge is by the oral route on two consecutive days. The medicated feed is introduced on the day after the second challenge. In the second trial a similar procedure is followed except that 4 groups of approximately 9 pigs were used. These are fed valnemulin hydrochloride at 5, 10 and 20 ppm and compared to unmedicated controls. In this trial the pigs used are from an outdoor reared herd and are challenged with a strain of S. hyodysenteriae isolated from an outdoor herd and previously shown to be capable of causing swine dysentery. In both trials the evidence of clinical disease is assessed daily and a clinical score assigned, rectal swabs are taken twice weekly for isolation of S. hyodysenteriae and all pigs are weighed at regular intervals. Food intake is also recorded. A post-mortem examination is carried out 21 days after challenge and the large intestine examined for the presence of lesions. Mucosal scrapings are also taken from 4 areas in the large intestine and cultured for S. hyodysenteriae.

[4] = tylosin 0.05%, tiamulin, valnemulin all but the lowest dose
[5] = valnemulin 0.0125 and 0.025%, tylosin 0.05%
[6] = tiamulin 100 ppm, treatment period
[7] = first trial, valnemulin 20 and 40 ppm

C=C[C@]1(C)C[C@@H](OC(=O)CSCCN(CC)CC)[C@]2(C)[C@H](C)CC[C@]3(CCC(=O)[C@H]32)[C@@H](C)[C@@H]1O [tiamulin hydrogen fumarate]
recovery of MG during life or at necropsy (Mycoplasma gallisepticum; tiamulin highest dose (0.025%), tylosin 0.05%): not recovered | weight gain (Mycoplasma gallisepticum; [4]): next but significantly less (p<0.05) | prevention of clinical signs and mortality (Mycoplasma gallisepticum; [5]): equally satisfactory | day by which improvement was seen in surviving pigs (S. hyodysenteriae [1]; tiamulin 100 ppm): ≤ 8 days | mean clinical score (S. hyodysenteriae [1]; tiamulin 100 ppm): 30 | mortality in words (S. hyodysenteriae [1]; tiamulin 100 ppm): reduced mortality compared to unmedicated controls but did not prevent some deaths | pigs with swine dysentery in post treatment period (S. hyodysenteriae [1]; tiamulin 100 ppm, last day of trial): one pig | animals that died or required euthanasia (S. hyodysenteriae [1]; [6]): 3 animals | daily live weight gain (DLWG) (S. hyodysenteriae [1]; [6]): 0.1 | feed conversion ratio (FCR) (S. hyodysenteriae [1]; [6]): 6.4 | MIC (S. hyodysenteriae [2]): 0.3 µg/mL | pigs with S. hyodysenteriae isolated (S. hyodysenteriae [3]; first trial, tiamulin 30 ppm): 2 | isolation of S. hyodysenteriae from mucosal scrapings (S. hyodysenteriae [3]; first trial, tiamulin 30 ppm): isolated from mucosal scrapings taken from all of these affected animals | post-mortem lesions in pigs with clinical signs (S. hyodysenteriae [3]; first trial, tiamulin 30 ppm): typical lesions of swine dysentery | post-mortem lesions in pigs without previous clinical signs (S. hyodysenteriae [3]; first trial, tiamulin 30 ppm): one pig | animals with clinical disease (S. hyodysenteriae [3]; first trial, tiamulin 30 ppm in feed): 2 out of 9 | mean clinical score per pig (S. hyodysenteriae [3]; first trial, tiamulin 30 ppm, control 36): 6 | prevention of swine dysentery in words (S. hyodysenteriae [3]; tiamulin 30 ppm in feed): did not prevent swine dysentery but reduced the incidence of disease

C=C[C@]1(C)C[C@@H](OC(=O)CSC(C)(C)CNC(=O)[C@H](N)C(C)C)[C@]2(C)[C@H](C)CC[C@]3(CCC(=O)[C@H]32)[C@@H](C)[C@@H]1O [valnemulin hydrochloride, 14-O-[1-[(R)-2-amino-3-methylbutyrylamino]-2-methylpropan-2-ylthioacetyl]mutilin]
weight gain (Mycoplasma gallisepticum; [4]): next but significantly less (p<0.05) | prevention of MG infection vs reference compounds (Mycoplasma gallisepticum; valnemulin 0.0125 and 0.025%): as effective as the reference compounds | prevention of clinical signs and mortality (Mycoplasma gallisepticum; [5]): equally satisfactory | lesions (frequency and severity) (Mycoplasma gallisepticum; valnemulin 0.0125 and 0.025%, tiamulin, tylosin 0.05%): then the two higher doses of valnemulin | effect on lesions (Mycoplasma gallisepticum; valnemulin 2 lower doses (0.00312, 0.00625%)): less effective | birds with MG isolated (Mycoplasma gallisepticum; valnemulin highest dose (0.025%)): only one bird | weight gain (Mycoplasma gallisepticum; valnemulin lowest dose): lowest weight gains | shedding of S. hyodysenteriae in faeces (S. hyodysenteriae [1]; all levels of valnemulin, after withdrawal of medicated feed): prevented by all levels of valnemulin | p of clinical scores, valnemulin vs tiamulin (S. hyodysenteriae [1]; days 3 to 10, all valnemulin groups): < 0.001 | survival (S. hyodysenteriae [1]; valnemulin 50, 75, 100, 150 ppm): All pigs treated with valnemulin survived | recovery from clinical swine dysentery compared to tiamulin (S. hyodysenteriae [1]; valnemulin 50, 75, 100 and 150 ppm): reduction in the number of days that were needed to recover | pigs with clinical signs in post treatment period (S. hyodysenteriae [1]; valnemulin 50 ppm): one pig | pigs with clinical swine dysentery at post-mortem (S. hyodysenteriae [1]; valnemulin 50 ppm): 1 pig | pigs with reddening of the large intestine (S. hyodysenteriae [1]; valnemulin 50 ppm): one other pig | time to clinical signs after withdrawal of medicated feed (S. hyodysenteriae [1]; valnemulin 50 ppm): 4 days | post-mortem lesions of swine dysentery (S. hyodysenteriae [1]; valnemulin 75, 100 or 150 ppm): not seen | pigs with S. hyodysenteriae in mucosal scrapings (S. hyodysenteriae [1]; valnemulin 75 ppm): One pig | efficacy in words (S. hyodysenteriae [1]; valnemulin 100 ppm): highly effective | day by which clinical disease was not seen (S. hyodysenteriae [1]; valnemulin, all levels): ≤ 5 days | MIC (S. hyodysenteriae [2]): 0.1 µg/mL | susceptibility of S. hyodysenteriae strains (S. hyodysenteriae [2]; all strains): susceptible | most active of the agents tested by (S. hyodysenteriae [2]; vs tiamulin, lincomycin, tylosin, dimetridazole): 3-600 fold | pigs with S. hyodysenteriae isolated (S. hyodysenteriae [3]; first trial, valnemulin 30 ppm): 2 pigs | isolation of S. hyodysenteriae (S. hyodysenteriae [3]; [7]): not isolated | post-mortem lesions (S. hyodysenteriae [3]; [7]): Lesions were not seen | evidence of disease (S. hyodysenteriae [3]; first trial, valnemulin 20 and 40 ppm in feed): Evidence of disease was not seen | isolation of S. hyodysenteriae from mucosal scrapings (S. hyodysenteriae [3]; first trial, valnemulin 30 ppm): not isolated from mucosal scrapings | pigs with post-mortem lesions (S. hyodysenteriae [3]; first trial, valnemulin 30 ppm): One pig | pigs with clinical disease (S. hyodysenteriae [3]; first trial, valnemulin 30 ppm in feed): 1 pig | inclusion rate down to which effective in preventing swine dysentery (S. hyodysenteriae [3]; in feed): 10 ppm | animals affected (S. hyodysenteriae [3]; second trial, 5 ppm): 5 out of 10 | p of mean clinical score vs controls (S. hyodysenteriae [3]; second trial, 5 ppm): < 0.005 | p of numbers affected vs controls (S. hyodysenteriae [3]; second trial, 5 ppm): < 0.05 | p, heavier than controls at end of trial (S. hyodysenteriae [3]; second trial, 5 ppm): 0.05 | other animals with lesions and S. hyodysenteriae in mucosal scrapings (S. hyodysenteriae [3]; second trial, 5 ppm, no clinical signs): 2 animals | pigs with post-mortem lesions (S. hyodysenteriae [3]; second trial, 5 ppm, of 5 pigs with previous signs, S. hyodysenteriae not isolated): 2 | pigs with S. hyodysenteriae isolated from rectal swabs (S. hyodysenteriae [3]; second trial, 5 ppm, of the 5 animals affected): 2 | mean clinical score (S. hyodysenteriae [3]; second trial, 5 ppm, control 77): 11 | first clinical signs after challenge (S. hyodysenteriae [3]; second trial, 5 ppm, control 5 days): 8 days | p, heavier than controls at end of trial (S. hyodysenteriae [3]; second trial, 10 and 20 ppm): < 0.05 | clinical signs of disease (S. hyodysenteriae [3]; second trial, 10 or 20 ppm): not seen | isolation of S. hyodysenteriae (S. hyodysenteriae [3]; second trial, 10 or 20 ppm): not isolated | post-mortem lesions (S. hyodysenteriae [3]; second trial, 10 or 20 ppm): Lesions were not seen | prevention of swine dysentery in words (S. hyodysenteriae [3]; valnemulin 5 ppm in feed): did not completely prevent clinical disease or the shedding of spirochaetes | prevention compared with tiamulin (S. hyodysenteriae [3]; valnemulin 10 ppm in feed): clearly more effective than Tiamulin at 30 ppm
